Calls of active or inactive are those of the source.
Legend:
[1] = target: T1, Scavenger receptor class B member 1 (Mus musculus, UniProt Q61009); assay: inhibitors of SR-BI mediated HDL lipid uptake, dose response, ldlA[mSR-BI] cells, fluorescence, cherry pick (AID 493194); format: functional, cell-based;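 note: cellular uptake of fluorescent DiI-labeled HDL measured as cell fluorescence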
T1 sequence (Q61009 whole entry): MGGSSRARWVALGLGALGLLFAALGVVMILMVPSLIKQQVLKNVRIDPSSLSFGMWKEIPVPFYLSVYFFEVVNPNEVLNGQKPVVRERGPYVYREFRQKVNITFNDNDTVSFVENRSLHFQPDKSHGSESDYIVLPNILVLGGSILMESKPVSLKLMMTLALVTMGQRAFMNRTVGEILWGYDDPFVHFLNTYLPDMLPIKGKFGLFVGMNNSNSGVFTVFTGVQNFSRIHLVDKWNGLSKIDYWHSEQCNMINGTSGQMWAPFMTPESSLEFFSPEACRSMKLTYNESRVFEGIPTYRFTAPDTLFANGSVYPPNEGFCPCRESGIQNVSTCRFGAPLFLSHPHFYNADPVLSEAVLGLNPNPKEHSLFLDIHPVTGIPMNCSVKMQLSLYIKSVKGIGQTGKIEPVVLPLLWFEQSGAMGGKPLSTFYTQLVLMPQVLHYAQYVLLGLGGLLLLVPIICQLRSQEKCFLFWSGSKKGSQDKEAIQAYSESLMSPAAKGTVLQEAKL

[2] = system: INS1; assay: beta cell apoptosis inhibitors, cytokine rescue, dose response, luminescence, retest (AID 449756); format: functional, cell-based; details: Rattus norvegicus;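 note: cell death triggered by IL-1 beta plus TNF-alpha plus IFN-gamma mixture; protective hits raise ATP signal compared with cytokine alone wells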
[3] = HepG2 cell cytotoxicity, dose response, cytotoxicity control for non-replicating M. tuberculosis project (AID 489018); format: functional; details: Mycobacterium tuberculosis
[4] = Vero E6 cell cytotoxicity, dose response, cytotoxicity control for non-replicating M. tuberculosis project, secondary assay (AID 492998); format: functional, VeroE6; details: Vero C1008
[5] = THP-1 cell cytotoxicity, dose response, cytotoxicity control for non-replicating M. tuberculosis project (AID 489025); format: functional
[6] = cells; format: functional
[7] = target: Kallikrein-7 (Homo sapiens, UniProt P49862); assay: Fluorescence Intensity-based biochemical primary high throughput dose response assay to identify activators of kallikrein-7 (K7) zymogen.
[8] = HEK293 cell cytotoxicity, dose response, cytotoxicity control, plate reader, cherry-picked samples (AID 743446); format: functional, cell-based
[9] = target: Induced myeloid leukemia cell differentiation protein Mcl-1 (Homo sapiens, UniProt Q07820); format: functional
[10] = MC4R antagonists, dose response, counter-screen for LGR2 antagonist project, cell-based, plate reader, cherry pick (AID 743444); format: functional;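 note: transfected HEK 293 cells stimulated with alpha-MSH peptide; potency of inhibitors of the alpha-MSH evoked signal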
[11] = A549 cell cytotoxicity, dose response, cytotoxicity control, plate reader, cherry-pick, antagonist series (AID 743412); format: functional, cell-based
[12] = HepG2 cell cytotoxicity, dose response, cytotoxicity control, plate reader, cherry-pick, antagonist series (AID 743416); format: functional, cell-based
[13] = target: Paired box protein Pax-8 (Homo sapiens, UniProt Q06710); assay: inhibitors of PAX8-driven TPO luciferase reporter, dose response, RMG-I cells, cherry-pick (AID 687027); format: functional, cell-based;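 note: luciferase reporter driven by Pax8 target thyroperoxidase promoter measured by SteadyGlo luminescence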
[14] = LGR2 antagonists, dose response, cell-based, HEK293, CRE-luciferase reporter, cherry pick, set 2 (AID 743343); format: functional;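 note: transfected cells were stimulated with diluted bursicon conditioned medium after compound addition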
[15] = target: T2, X-box-binding protein 1 (Homo sapiens, UniProt P17861); format: functional, Cricetulus griseus;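 note: confirmatory dose-response counter-screen serving a CHOP assay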
T2 sequence (P17861 whole entry): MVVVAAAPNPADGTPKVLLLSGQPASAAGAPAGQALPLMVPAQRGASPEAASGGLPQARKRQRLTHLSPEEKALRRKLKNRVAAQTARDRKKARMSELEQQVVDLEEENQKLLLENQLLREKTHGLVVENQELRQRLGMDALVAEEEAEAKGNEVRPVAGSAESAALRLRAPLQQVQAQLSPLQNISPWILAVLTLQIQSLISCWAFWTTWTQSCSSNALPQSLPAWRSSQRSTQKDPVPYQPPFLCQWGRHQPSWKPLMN

[16] = growth suppression of PTEN-null colon cells, dose response, cell-based, HCT116 PTEN knockout (AID 1047); format: functional;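 note: HCT116 colon tumor cells with PTEN knocked out; cells exposed to compound for 60 hours before readout; potency for loss of cell viability measured by luminescence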
[17] = system: Streptococcus sp. 'group A'; assay: growth inhibition of control SK(-) GAS strain, dose response, counter-screen for streptokinase expression inhibitor project, luminescence, kanamycin, BacTiterGlo, confirmation (AID 1900); format: functional, organism-based
[18] = growth suppression of beta-catenin-knockout colon cells, dose response, cell-based, HCT116, human colon tumor (AID 1045); format: functional;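 note: HCT116 colon tumor cells with beta catenin knocked out; cells exposed to compound for 60 hours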
[19] = system: Streptococcus; assay: Group A Streptococcus viability loss, dose response, counter-screen for streptokinase expression inhibitor project, luminescence, BacTiterGlo (AID 1915); format: functional, organism-based;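 note: potency for reduction of bacterial viability or growth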
[20] = Luminescence Cell-Based Dose Retest to Confirm Inhibitors of Cancer Stem Cells. [Related pubchem assays (depositor defined):AID2717, AID2721]; format: functional, Homo sapiens; details: Homo sapiens
[21] = target: Voltage-gated N-type calcium channel alpha-1B subunit/Amyloid beta A4 precursor protein-binding family A member 1 (Homo sapiens, UniProt Q00975+Q02410); assay: disruptors of Mint-PDZ/N-type channel peptide interaction – biochemical, HTRF, SAR follow-up (AID 2489); format: functional
Chain of Voltage-gated N-type calcium channel alpha-1B subunit/Amyloid beta A4 precursor protein-binding family A member 1 (Q00975 whole entry): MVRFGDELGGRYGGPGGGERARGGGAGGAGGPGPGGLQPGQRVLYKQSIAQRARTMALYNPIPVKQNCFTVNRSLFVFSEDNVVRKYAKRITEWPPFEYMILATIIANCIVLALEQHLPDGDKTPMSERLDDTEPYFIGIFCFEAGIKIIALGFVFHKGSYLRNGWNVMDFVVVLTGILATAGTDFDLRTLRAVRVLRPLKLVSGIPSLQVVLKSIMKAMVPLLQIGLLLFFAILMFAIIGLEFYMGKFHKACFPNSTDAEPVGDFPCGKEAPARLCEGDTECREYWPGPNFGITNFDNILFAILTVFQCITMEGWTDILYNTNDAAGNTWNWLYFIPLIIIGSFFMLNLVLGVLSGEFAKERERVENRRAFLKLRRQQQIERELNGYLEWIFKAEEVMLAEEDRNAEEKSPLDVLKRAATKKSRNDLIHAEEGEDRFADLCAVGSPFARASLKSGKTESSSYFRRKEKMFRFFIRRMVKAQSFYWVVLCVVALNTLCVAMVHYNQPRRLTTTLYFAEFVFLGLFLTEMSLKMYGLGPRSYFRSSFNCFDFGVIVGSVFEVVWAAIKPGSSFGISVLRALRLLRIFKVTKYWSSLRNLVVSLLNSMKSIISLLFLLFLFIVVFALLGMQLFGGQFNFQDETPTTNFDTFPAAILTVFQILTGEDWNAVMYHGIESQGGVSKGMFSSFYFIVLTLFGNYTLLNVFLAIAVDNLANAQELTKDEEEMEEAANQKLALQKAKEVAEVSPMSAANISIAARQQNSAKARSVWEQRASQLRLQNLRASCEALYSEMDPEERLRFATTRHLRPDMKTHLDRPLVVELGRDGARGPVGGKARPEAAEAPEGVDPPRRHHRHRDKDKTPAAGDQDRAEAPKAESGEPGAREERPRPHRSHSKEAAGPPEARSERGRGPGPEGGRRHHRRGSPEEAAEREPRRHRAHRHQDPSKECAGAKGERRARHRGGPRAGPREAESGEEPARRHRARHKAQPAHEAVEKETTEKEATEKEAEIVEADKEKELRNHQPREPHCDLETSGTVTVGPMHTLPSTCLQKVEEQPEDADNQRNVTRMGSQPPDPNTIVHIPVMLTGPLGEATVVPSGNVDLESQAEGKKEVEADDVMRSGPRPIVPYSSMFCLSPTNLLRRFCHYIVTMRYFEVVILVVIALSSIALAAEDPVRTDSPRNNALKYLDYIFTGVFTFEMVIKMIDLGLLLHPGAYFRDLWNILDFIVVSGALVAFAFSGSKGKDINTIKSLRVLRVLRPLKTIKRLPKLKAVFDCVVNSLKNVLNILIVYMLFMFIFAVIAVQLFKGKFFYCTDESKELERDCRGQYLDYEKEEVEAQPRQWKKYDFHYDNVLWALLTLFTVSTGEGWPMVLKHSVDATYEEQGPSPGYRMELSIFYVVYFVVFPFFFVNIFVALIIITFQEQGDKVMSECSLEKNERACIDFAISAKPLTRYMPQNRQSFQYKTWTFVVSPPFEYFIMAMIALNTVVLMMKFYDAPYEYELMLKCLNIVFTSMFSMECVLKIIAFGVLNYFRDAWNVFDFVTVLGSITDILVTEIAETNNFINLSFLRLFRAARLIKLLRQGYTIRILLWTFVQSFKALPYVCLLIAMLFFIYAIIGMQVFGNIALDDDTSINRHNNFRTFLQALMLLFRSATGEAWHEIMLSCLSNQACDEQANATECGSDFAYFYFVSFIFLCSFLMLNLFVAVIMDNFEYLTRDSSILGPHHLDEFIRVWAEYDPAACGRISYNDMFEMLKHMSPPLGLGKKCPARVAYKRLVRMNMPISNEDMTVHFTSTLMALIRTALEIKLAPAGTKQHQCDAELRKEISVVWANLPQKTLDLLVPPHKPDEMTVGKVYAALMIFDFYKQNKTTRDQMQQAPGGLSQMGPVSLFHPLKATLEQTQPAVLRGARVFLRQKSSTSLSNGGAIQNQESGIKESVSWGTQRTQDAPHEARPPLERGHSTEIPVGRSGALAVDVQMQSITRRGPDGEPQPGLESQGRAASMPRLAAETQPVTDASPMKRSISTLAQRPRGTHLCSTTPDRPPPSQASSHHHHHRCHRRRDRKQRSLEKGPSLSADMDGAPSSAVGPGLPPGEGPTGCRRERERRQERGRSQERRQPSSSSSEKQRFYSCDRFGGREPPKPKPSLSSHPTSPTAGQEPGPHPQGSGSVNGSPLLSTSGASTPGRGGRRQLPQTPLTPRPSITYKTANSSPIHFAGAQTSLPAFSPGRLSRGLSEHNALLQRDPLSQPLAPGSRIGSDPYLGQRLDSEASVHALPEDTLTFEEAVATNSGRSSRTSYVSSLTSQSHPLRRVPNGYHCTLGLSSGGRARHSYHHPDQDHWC
Chain of Voltage-gated N-type calcium channel alpha-1B subunit/Amyloid beta A4 precursor protein-binding family A member 1 (Q02410 whole entry): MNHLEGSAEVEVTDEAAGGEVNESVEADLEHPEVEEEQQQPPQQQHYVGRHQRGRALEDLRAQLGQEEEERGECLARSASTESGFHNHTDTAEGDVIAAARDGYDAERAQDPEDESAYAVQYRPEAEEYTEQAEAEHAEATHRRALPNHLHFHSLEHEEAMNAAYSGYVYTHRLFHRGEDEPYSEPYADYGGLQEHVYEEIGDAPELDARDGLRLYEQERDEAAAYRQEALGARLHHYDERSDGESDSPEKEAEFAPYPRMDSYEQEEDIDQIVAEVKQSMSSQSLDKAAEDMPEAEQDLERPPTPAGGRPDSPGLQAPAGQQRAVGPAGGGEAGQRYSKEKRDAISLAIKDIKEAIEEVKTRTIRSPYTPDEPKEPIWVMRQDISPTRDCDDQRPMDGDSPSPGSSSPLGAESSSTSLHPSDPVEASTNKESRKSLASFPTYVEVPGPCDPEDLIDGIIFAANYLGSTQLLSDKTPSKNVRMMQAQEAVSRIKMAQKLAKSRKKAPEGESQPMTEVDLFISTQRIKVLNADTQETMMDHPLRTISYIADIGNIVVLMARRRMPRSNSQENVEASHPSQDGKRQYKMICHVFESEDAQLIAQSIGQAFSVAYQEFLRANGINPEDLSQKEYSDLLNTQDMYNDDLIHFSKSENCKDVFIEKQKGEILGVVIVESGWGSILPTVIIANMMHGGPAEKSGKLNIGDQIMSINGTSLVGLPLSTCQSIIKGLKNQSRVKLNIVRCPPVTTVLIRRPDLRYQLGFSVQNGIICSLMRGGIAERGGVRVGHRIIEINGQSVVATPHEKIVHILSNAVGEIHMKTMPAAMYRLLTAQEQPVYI

Chain of Kallikrein-7 (P49862 whole entry): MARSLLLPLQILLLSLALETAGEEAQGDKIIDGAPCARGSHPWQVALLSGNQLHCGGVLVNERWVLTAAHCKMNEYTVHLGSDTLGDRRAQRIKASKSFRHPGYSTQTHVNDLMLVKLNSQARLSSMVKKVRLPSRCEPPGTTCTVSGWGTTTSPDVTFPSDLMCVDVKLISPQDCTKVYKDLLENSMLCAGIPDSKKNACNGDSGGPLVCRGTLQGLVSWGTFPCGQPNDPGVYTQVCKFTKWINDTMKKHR
Chain of Paired box protein Pax-8 (Q06710 whole entry): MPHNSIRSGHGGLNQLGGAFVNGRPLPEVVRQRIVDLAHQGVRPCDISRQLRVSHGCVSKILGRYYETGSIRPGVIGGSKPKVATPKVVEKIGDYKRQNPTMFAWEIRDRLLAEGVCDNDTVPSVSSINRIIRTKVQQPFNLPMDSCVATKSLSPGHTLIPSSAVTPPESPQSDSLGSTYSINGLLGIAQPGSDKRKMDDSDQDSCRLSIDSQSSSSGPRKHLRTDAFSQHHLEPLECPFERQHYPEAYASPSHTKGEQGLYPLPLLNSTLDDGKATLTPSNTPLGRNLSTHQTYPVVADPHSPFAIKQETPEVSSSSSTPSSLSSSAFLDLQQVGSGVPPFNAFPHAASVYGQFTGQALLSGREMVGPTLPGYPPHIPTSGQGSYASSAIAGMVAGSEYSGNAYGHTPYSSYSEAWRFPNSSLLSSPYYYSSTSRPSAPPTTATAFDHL
Chain of Induced myeloid leukemia cell differentiation protein Mcl-1 (Q07820 whole entry): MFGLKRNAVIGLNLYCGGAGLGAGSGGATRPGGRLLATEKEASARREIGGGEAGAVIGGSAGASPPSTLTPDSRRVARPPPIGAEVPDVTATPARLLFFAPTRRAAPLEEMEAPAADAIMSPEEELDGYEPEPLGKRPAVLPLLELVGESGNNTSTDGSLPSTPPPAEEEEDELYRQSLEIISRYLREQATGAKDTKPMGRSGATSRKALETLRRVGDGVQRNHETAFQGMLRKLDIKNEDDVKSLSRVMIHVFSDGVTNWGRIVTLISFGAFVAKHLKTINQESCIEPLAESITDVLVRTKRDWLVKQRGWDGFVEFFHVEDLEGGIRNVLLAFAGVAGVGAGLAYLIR

CCOc1ccc(NC(=O)CN2CCN(CC(=O)Nc3cc(OC)cc(OC)c3)CC2)cc1
AC50 [1]: 0.414 µM (active)

Cc1cc(N2CCC(C)CC2)nc(NCc2ccccc2)n1
AC50 [2]: 5.93 µM (active)
CC50 [3]: > 20 µM (active)
CC50 [4]: > 20 µM (active)
CC50 [5]: 13.4 µM (active)
IC50 [6]: 45.4 µM (active)

CCC(=O)N1CCc2cc(-c3csc(NC(=O)c4ccco4)n3)ccc21
EC50 [7]: 10.5 µM (inactive)
AC50 [1]: 0.109 µM (active)

O=C(Nc1cccc(Cl)c1)Nc1nnc(-c2ccncc2)s1
AC50 [2]: 4.54 µM (active)
CC50 [3]: 9.96 µM (active)
AC50 [8]: 15.5 µM (active)
IC50 [9]: 3.12 µM (active)
AC50 [10]: 6.08 µM (active)
CC50 [4]: > 20 µM (active)
CC50 [5]: 6.34 µM (active)
AC50 [11]: 17.3 µM (active)
IC50 [6]: > 50 µM (active)
AC50 [12]: 8.34 µM (active)
AC50 [13]: 2.97 µM (active)
AC50 [14]: 3.28 µM (active)

COC(=O)c1[nH]c2cc(OC)ccc2c1NC(=O)c1ccc2c(c1)OCO2
AC50 [1]: 17.8 µM (active)

CCNC(=O)c1c(NC(=O)c2cc(-c3cc(C)ccc3O)[nH]n2)sc2c1CCCC2
Absolute IC50 (XBP1) [15]: 10 µM
EC50 [16]: 11.3 µM (active)
EC50 [17]: 2.5 µM (active)
EC50 [18]: 15 µM (active)
EC50 [19]: 7.09 µM (active)
AC50 [20]: 5.2 µM (active)

CC(/C=C/c1ccco1)=NNC(=O)c1cc(C)[nH]n1
IC50 [21]: > 56.8 µM (inactive)

From ChEMBL document CHEMBL1201862, “PubChem BioAssay data set” (2004)
